In the NIST ThermoML archive (doi:10.1016/j.jct.2016.10.031):
“And” between values parts separate entries of the source, which are not always exact repeats. Identical values can stand only once.

Assay: molar heat capacity at constant pressure
Conditions: 101.33 kPa, Small (less than 1 g) adiabatic calorimetry

CC(C)(C)c1ccc(Oc2ccc([N+](=O)[O-])cc2)cc1 [1-(tert-butyl)-4-(4-nitrophenoxy)benzene]
Conditions	molar heat capacity at constant pressure
210.18 K, Glass	258.75 J/K/mol
210.65 K, Crystal	255.67 J/K/mol
211.38 K, Glass	260.08 J/K/mol
211.85 K, Crystal	257 J/K/mol
212.58 K, Glass	261.24 J/K/mol
213.05 K, Crystal	258.5 J/K/mol
213.78 K, Glass	262.57 J/K/mol
214.26 K, Crystal	259.91 J/K/mol
214.99 K, Glass	263.98 J/K/mol
215.46 K, Crystal	261.07 J/K/mol
216.19 K, Glass	265.4 J/K/mol
216.66 K, Crystal	262.4 J/K/mol
217.4 K, Glass	266.56 J/K/mol
217.87 K, Crystal	263.65 J/K/mol
218.61 K, Glass	267.89 J/K/mol
219.07 K, Crystal	265.56 J/K/mol
220 K, Crystal	266.48 J/K/mol
220.27 K, Crystal	266.4 J/K/mol
221.02 K, Glass	272.13 J/K/mol
221.47 K, Crystal	268.06 J/K/mol
222.24 K, Glass	272.71 J/K/mol
222.68 K, Crystal	269.47 J/K/mol
223.45 K, Glass	273.71 J/K/mol
223.88 K, Crystal	270.8 J/K/mol
224.67 K, Glass	275.46 J/K/mol
225.09 K, Crystal	272.13 J/K/mol
225.88 K, Glass	277.37 J/K/mol
226.29 K, Crystal	273.38 J/K/mol
227.1 K, Glass	279.45 J/K/mol
227.5 K, Crystal	274.88 J/K/mol
228.32 K, Glass	281.53 J/K/mol
228.7 K, Crystal	276.37 J/K/mol
229.54 K, Glass	283.61 J/K/mol
229.91 K, Crystal	277.7 J/K/mol
230 K, Crystal	277.79 J/K/mol
230.75 K, Glass	286.52 J/K/mol
231.12 K, Crystal	278.7 J/K/mol
231.96 K, Glass	291.09 J/K/mol
232.32 K, Crystal	280.03 J/K/mol
233.16 K, Glass	296.83 J/K/mol
233.53 K, Crystal	281.78 J/K/mol
234.33 K, Metastable liquid	313.12 J/K/mol
234.74 K, Crystal	283.36 J/K/mol
235.47 K, Metastable liquid	327.51 J/K/mol
235.95 K, Crystal	284.69 J/K/mol
236.57 K, Metastable liquid	370.08 J/K/mol
237.15 K, Crystal	286.77 J/K/mol
237.72 K, Metastable liquid	379.14 J/K/mol
238.37 K, Crystal	287.51 J/K/mol
238.92 K, Metastable liquid	380.05 J/K/mol
239.58 K, Crystal	289.09 J/K/mol
240 K, Crystal	289.26 J/K/mol
240.13 K, Metastable liquid	380.22 J/K/mol
240.79 K, Crystal	290.51 J/K/mol
241.35 K, Metastable liquid	381.3 J/K/mol
242 K, Crystal	291.5 J/K/mol
242.56 K, Metastable liquid	382.3 J/K/mol
243.21 K, Crystal	292.84 J/K/mol
243.77 K, Metastable liquid	383.46 J/K/mol
244.43 K, Crystal	294.58 J/K/mol
244.99 K, Metastable liquid	384.21 J/K/mol
245.64 K, Crystal	295.99 J/K/mol
246.85 K, Crystal	297.24 J/K/mol
248.06 K, Crystal	298.57 J/K/mol
249.28 K, Crystal	300.07 J/K/mol
250 K, Crystal	300.9 J/K/mol
250.5 K, Crystal	301.73 J/K/mol
251.71 K, Crystal	302.73 J/K/mol
252.92 K, Crystal	304.39 J/K/mol
254.14 K, Crystal	305.89 J/K/mol
255.35 K, Crystal	307.72 J/K/mol
256.57 K, Crystal	309.05 J/K/mol
257.78 K, Crystal	310.55 J/K/mol
259 K, Crystal	311.96 J/K/mol
260 K, Crystal	312.62 J/K/mol
260.22 K, Crystal	313.46 J/K/mol
261.44 K, Crystal	315.12 J/K/mol
262.65 K, Crystal	316.28 J/K/mol
263.87 K, Crystal	317.61 J/K/mol
265.09 K, Crystal	319.11 J/K/mol
266.31 K, Crystal	320.52 J/K/mol
267.53 K, Crystal	322.93 J/K/mol
268.76 K, Crystal	323.52 J/K/mol
269.98 K, Crystal	324.6 J/K/mol
270 K, Crystal	324.6 J/K/mol
271.2 K, Crystal	326.68 J/K/mol
272.42 K, Crystal	327.92 J/K/mol
273.64 K, Crystal	329.92 J/K/mol
274.86 K, Crystal	331.08 J/K/mol
276.09 K, Crystal	332.58 J/K/mol
277.31 K, Crystal	333.99 J/K/mol
278.53 K, Crystal	335.41 J/K/mol
279.76 K, Crystal	336.82 J/K/mol
280 K, Crystal	336.82 J/K/mol
280.98 K, Crystal	337.98 J/K/mol
282.21 K, Crystal	338.98 J/K/mol
283.43 K, Crystal	341.06 J/K/mol
284.66 K, Crystal	342.56 J/K/mol
285.89 K, Crystal	344.14 J/K/mol
287.11 K, Crystal	345.22 J/K/mol
288.31 K, Crystal	347.05 J/K/mol
289.54 K, Crystal	348.38 J/K/mol
290 K, Crystal	349.21 J/K/mol
290.77 K, Crystal	349.96 J/K/mol
291.99 K, Crystal	351.2 J/K/mol
293.22 K, Crystal	353.2 J/K/mol
294.45 K, Crystal	354.45 J/K/mol
295.68 K, Crystal	355.94 J/K/mol
296.91 K, Crystal	357.69 J/K/mol
298.15 K, Crystal	359.02 J/K/mol and 359.52 J/K/mol
299.38 K, Crystal	360.35 J/K/mol
300 K, Crystal	361.85 J/K/mol
300.82 K, Crystal	363.01 J/K/mol
302.44 K, Crystal	364.84 J/K/mol
304.06 K, Crystal	367.75 J/K/mol
305.69 K, Crystal	370.08 J/K/mol
307.33 K, Crystal	372.49 J/K/mol
308.97 K, Crystal	374.65 J/K/mol
310 K, Crystal	376.4 J/K/mol
310.62 K, Crystal	377.23 J/K/mol
312.28 K, Crystal	379.97 J/K/mol
313.94 K, Crystal	385.62 J/K/mol
315.6 K, Crystal	386.71 J/K/mol
317.26 K, Crystal	392.78 J/K/mol
318.94 K, Crystal	397.18 J/K/mol
320 K, Crystal	390.45 J/K/mol
320.63 K, Crystal	403.09 J/K/mol
322.32 K, Crystal	412.15 J/K/mol
324.01 K, Crystal	420.79 J/K/mol
325.71 K, Crystal	441.66 J/K/mol
327.44 K, Crystal	477.92 J/K/mol
330 K, Crystal	404.5 J/K/mol
334.8 K, Crystal	411.23 J/K/mol
334.8 K, Liquid	446.57 J/K/mol
340 K, Liquid	449.23 J/K/mol
340.68 K, Liquid	450.39 J/K/mol
344.79 K, Liquid	449.98 J/K/mol
346.59 K, Liquid	452.64 J/K/mol
348.4 K, Liquid	452.39 J/K/mol
350 K, Liquid	454.39 J/K/mol
350.22 K, Liquid	454.88 J/K/mol
352.05 K, Liquid	456.21 J/K/mol
353.89 K, Liquid	457.05 J/K/mol
355.75 K, Liquid	456.96 J/K/mol
357.6 K, Liquid	459.21 J/K/mol
359.66 K, Liquid	460.7 J/K/mol
360 K, Liquid	459.54 J/K/mol
361.55 K, Liquid	460.21 J/K/mol
363.45 K, Liquid	461.62 J/K/mol
365.36 K, Liquid	462.28 J/K/mol
367.28 K, Liquid	462.87 J/K/mol
369.21 K, Liquid	463.95 J/K/mol
370 K, Liquid	464.7 J/K/mol
371.16 K, Liquid	464.86 J/K/mol
